Assay: xn = mol fraction of the nth substance listed
Settings: 101 kPa, Liquid; for viscosity: Capillary tube (Ostwald / Ubbelohde) method; for speed of sound: Linear variable-path acoustic interferometer; for mass density: Pycnometric method

C=C(C)C(=O)OC [methyl methacrylate] + CC(=O)N(C)C
Settings | mass density [kg/m3] | speed of sound [m/s] | viscosity [mPa·s]
288.15 K, x1 = 0.0714 | 946.01 | 1484.2 | 1.103
288.15 K, x1 = 0.144 | 946.49 | 1468.6 | 1.057
288.15 K, x1 = 0.2125 | 946.92 | 1452.9 | 1.016
288.15 K, x1 = 0.2823 | 947.31 | 1435.8 | 0.9751
288.15 K, x1 = 0.3568 | 947.69 | 1416.2 | 0.9339
288.15 K, x1 = 0.4318 | 948.02 | 1394.9 | 0.8939
288.15 K, x1 = 0.5046 | 948.31 | 1372.8 | 0.856
288.15 K, x1 = 0.5769 | 948.54 | 1349.9 | 0.8196
288.15 K, x1 = 0.6512 | 948.73 | 1325.5 | 0.7835
288.15 K, x1 = 0.7205 | 948.88 | 1302.7 | 0.7513
288.15 K, x1 = 0.7845 | 948.97 | 1282.2 | 0.7228
288.15 K, x1 = 0.8558 | 949.03 | 1259.7 | 0.6927
288.15 K, x1 = 0.9281 | 949.07 | 1237.5 | 0.6628
288.15 K, x1 = 1 | 949.1 | 1216.8 | 0.634
293.15 K, x1 = 0.0714 | 941.45 | 1467.3 | 0.9972
293.15 K, x1 = 0.144 | 941.87 | 1452.1 | 0.957
293.15 K, x1 = 0.2125 | 942.23 | 1436.6 | 0.9207
293.15 K, x1 = 0.2823 | 942.55 | 1419.2 | 0.8852
293.15 K, x1 = 0.3568 | 942.84 | 1399.5 | 0.8487
293.15 K, x1 = 0.4318 | 943.08 | 1378.3 | 0.8137
293.15 K, x1 = 0.5046 | 943.28 | 1356.3 | 0.7808
293.15 K, x1 = 0.5769 | 943.43 | 1333.1 | 0.7494
293.15 K, x1 = 0.6512 | 943.52 | 1308.9 | 0.7183
293.15 K, x1 = 0.7205 | 943.58 | 1286.3 | 0.691
293.15 K, x1 = 0.7845 | 943.59 | 1266 | 0.6666
293.15 K, x1 = 0.8558 | 943.54 | 1243.5 | 0.6409
293.15 K, x1 = 0.9281 | 943.46 | 1221.3 | 0.6153
293.15 K, x1 = 1 | 943.37 | 1200.5 | 0.5903
298.15 K, x1 = 0.0714 | 936.89 | 1448.2 | 0.9087
298.15 K, x1 = 0.144 | 937.25 | 1433.9 | 0.8736
298.15 K, x1 = 0.2125 | 937.54 | 1418.5 | 0.8414
298.15 K, x1 = 0.2823 | 937.79 | 1400.8 | 0.8102
298.15 K, x1 = 0.3568 | 937.99 | 1381 | 0.7782
298.15 K, x1 = 0.4318 | 938.14 | 1359.8 | 0.7473
298.15 K, x1 = 0.5046 | 938.25 | 1338 | 0.7186
298.15 K, x1 = 0.5769 | 938.31 | 1315.4 | 0.6915
298.15 K, x1 = 0.6512 | 938.31 | 1291.5 | 0.665
298.15 K, x1 = 0.7205 | 938.28 | 1269.3 | 0.6416
298.15 K, x1 = 0.7845 | 938.21 | 1248.9 | 0.6207
298.15 K, x1 = 0.8558 | 938.05 | 1226.9 | 0.5983
298.15 K, x1 = 0.9281 | 937.85 | 1204.6 | 0.5763
298.15 K, x1 = 1 | 937.63 | 1183.6 | 0.5544
303.15 K, x1 = 0.0714 | 932.33 | 1429.5 | 0.8475
303.15 K, x1 = 0.144 | 932.63 | 1415.5 | 0.8152
303.15 K, x1 = 0.2125 | 932.85 | 1400.7 | 0.7858
303.15 K, x1 = 0.2823 | 933.03 | 1383.5 | 0.7573
303.15 K, x1 = 0.3568 | 933.14 | 1363.9 | 0.7278
303.15 K, x1 = 0.4318 | 933.2 | 1342.9 | 0.6995
303.15 K, x1 = 0.5046 | 933.22 | 1321.2 | 0.6733
303.15 K, x1 = 0.5769 | 933.19 | 1298.9 | 0.649
303.15 K, x1 = 0.6512 | 933.1 | 1275.4 | 0.6253
303.15 K, x1 = 0.7205 | 932.98 | 1253.7 | 0.6042
303.15 K, x1 = 0.7845 | 932.82 | 1233.8 | 0.5853
303.15 K, x1 = 0.8558 | 932.56 | 1211.8 | 0.565
303.15 K, x1 = 0.9281 | 932.24 | 1189.9 | 0.545
303.15 K, x1 = 1 | 931.89 | 1168.5 | 0.5251
308.15 K, x1 = 0.0714 | 927.77 | 1409.8 | 0.789
308.15 K, x1 = 0.144 | 928.01 | 1396.4 | 0.7601
308.15 K, x1 = 0.2125 | 928.16 | 1382.1 | 0.7332
308.15 K, x1 = 0.2823 | 928.26 | 1365.2 | 0.7071
308.15 K, x1 = 0.3568 | 928.29 | 1345.7 | 0.68
308.15 K, x1 = 0.4318 | 928.26 | 1324.8 | 0.654
308.15 K, x1 = 0.5046 | 928.19 | 1303.4 | 0.6305
308.15 K, x1 = 0.5769 | 928.07 | 1281.5 | 0.6082
308.15 K, x1 = 0.6512 | 927.89 | 1258.5 | 0.5867
308.15 K, x1 = 0.7205 | 927.68 | 1237.5 | 0.5678
308.15 K, x1 = 0.7845 | 927.43 | 1217.7 | 0.5507
308.15 K, x1 = 0.8558 | 927.07 | 1196.1 | 0.5325
308.15 K, x1 = 0.9281 | 926.63 | 1174.2 | 0.514
308.15 K, x1 = 1 | 926.15 | 1152.6 | 0.496
313.15 K, x1 = 0.0714 | 923.21 | 1392.2 | 0.743
313.15 K, x1 = 0.144 | 923.38 | 1379.6 | 0.7165
313.15 K, x1 = 0.2125 | 923.46 | 1365.5 | 0.6916
313.15 K, x1 = 0.2823 | 923.49 | 1348.6 | 0.6671
313.15 K, x1 = 0.3568 | 923.44 | 1328.3 | 0.6422
313.15 K, x1 = 0.4318 | 923.32 | 1306.9 | 0.6183
313.15 K, x1 = 0.5046 | 923.16 | 1285.6 | 0.5963
313.15 K, x1 = 0.5769 | 922.95 | 1263.9 | 0.5759
313.15 K, x1 = 0.6512 | 922.68 | 1241.1 | 0.5562
313.15 K, x1 = 0.7205 | 922.38 | 1220.1 | 0.5387
313.15 K, x1 = 0.7845 | 922.04 | 1200.9 | 0.523
313.15 K, x1 = 0.8558 | 921.57 | 1179 | 0.506
313.15 K, x1 = 0.9281 | 921.01 | 1157.2 | 0.4891
313.15 K, x1 = 1 | 920.41 | 1135.4 | 0.4723
318.15 K, x1 = 0.0714 | 918.65 | 1374.5 | 0.7095
318.15 K, x1 = 0.144 | 918.75 | 1362.8 | 0.6842
318.15 K, x1 = 0.2125 | 918.76 | 1348.2 | 0.6607
318.15 K, x1 = 0.2823 | 918.72 | 1330.9 | 0.6374
318.15 K, x1 = 0.3568 | 918.59 | 1310.1 | 0.6135
318.15 K, x1 = 0.4318 | 918.38 | 1288.6 | 0.5905
318.15 K, x1 = 0.5046 | 918.13 | 1267.2 | 0.5693
318.15 K, x1 = 0.5769 | 917.83 | 1245.9 | 0.5497
318.15 K, x1 = 0.6512 | 917.47 | 1223.7 | 0.5307
318.15 K, x1 = 0.7205 | 917.08 | 1202.8 | 0.5141
318.15 K, x1 = 0.7845 | 916.65 | 1184 | 0.4991
318.15 K, x1 = 0.8558 | 916.07 | 1162.4 | 0.4828
318.15 K, x1 = 0.9281 | 915.39 | 1140.2 | 0.4662
318.15 K, x1 = 1 | 914.66 | 1118.3 | 0.4499

— the NIST ThermoML archive (doi:10.1016/j.jct.2013.01.013)
